In US12214080B2, “Micronized lipids” (MCAL Therapeutics Inc., priority 2021, dated 2025):
“Also recorded” adds a separate entry of the source.

Tests used:
[1] = Solubility and general physicochemical properties of MCAL-201
Procedure: The general and physiochemical properties of MCAL-201 are: • 1,2-EPRG has a molecular weight of 611.05 g/mol • Empirical formula: C39H78O4 • Appearance: White powder • Particle size: 1-10 μm (post micronization) • Hygroscopicity: Low • Chirality: Racemic • Enantiomeric excess: 0 • Melting point: 57° C. • Solubility: Insoluble in water. Soluble in chloroform (40 mg/mL) and castor oil (25 mg/mL)
However, preparation of a water soluble cyclodextrin inclusion complex of MCAL-201 was used in nonclinical efficacy studies. In addition, solutions of MCAL-201 in castor oil which can be emulsified to micron sized liquid particles in aqueous buffers can be used to deliver MCAL-201 directly to the tear film lipid layer.

[2] = Chemical and isomeric stability (1,2-EPRG to 1,3-EPRG acyl migration), NMR analysis; type: physicochemical
Excerpt: This led to development of the delivery of solid MCAL-201 as a suspension of crystalline or amorphous micronized solid particle suspended in a water-based formulation isotonic with tear. Although MCAL-201 crystalline drug substance floated on phosphate buffered saline (PBS) it could be suspended following micronization to 1-10 micron particles which could be stably suspended in PBS with the aid of polysorbate 80 as a wetting agent and xanthan gum to adjust density and viscosity of the drug product.

[3] = Physical stability of the micronized suspension toward separation of particles; type: physicochemical; settings: suspension in PBS with polysorbate 80 and xanthan gum, room temperature
Excerpt: Treatment of these particles with poly-sorbate 80 (0.3% w/w) as a wetting agent affords a suspension of the micronized particles in a mixture of xanthan gum (0.1-0.3% w/w, See FIG. 3) in Phosphate Buffered Saline (PBS, pH 6-8, 260-320 mOsm/L) suitable for administration as a stably suspended topical drop or suspension for injection.

naïve dogs = assay: Non-GLP topical ocular dose range-finding toxicity and tolerability study (SPOTS, IOP, STT); type: in vivo
Procedure: (§1) A non-GLP topical ocular administration dose range-finding pharmacology and toxicity study of MCAL-201 was conducted in naïve dogs. The primary study objective was to assess the tolerability of topical ocular administration of MCAL-201 in dogs with a secondary objective to obtain data supporting pharmacological activity in healthy dogs.
(§2) The effects of vehicle and 0.1, 0.5, 1, 3 and 10 mg/mL MCAL-201 delivered as a 35 μL drop bilaterally QD (0.0035, 0.0175, 0.035, 0.105 and 0.35 mg/eye/day) were evaluated in Part I. The dosing regimen is summarized in 3.
(§3) Scoring of the ocular surface and anterior segment of the eye was performed using the SPOTS system by a board-certified veterinary ophthalmologist. SPOTS was performed for each concentration evaluated. To measure TBUT, fluorescein was instilled in the eye and the eye was manually closed and then gently opened to simulate a blink. The time interval between the opening of the eye and the first sign of disruption of the uniform tear film, as indicated by breaks in the fluorescein was recorded in seconds. The procedure was repeated three times on both eyes, first right than left eye. After BID dosing with 10 mg/mL MCAL-201, SPOTS was also performed at 48 hours after the last dose.

healthy dogs = assay: Tear film break-up time (TBUT) after topical ocular administration; type: in vivo, dog; settings: 5 healthy adult dogs, single administration (FIG. 6)
Procedure: as §1, §2, §3

In the case of `CCCCCCCCCCCCCCCCCCCCOCC(CO)OC(=O)CCCCCCCCCCCCCCC` (racemic) [MCAL-201, 1-O-eicosanyl-2-palmitoyl-rac-glycerol], the Hygroscopicity [1] is reported as “Low”, the Solubility in water ([1]; water) is reported as “Insoluble; also recorded: extreme insolubility” and the “1,3-EPRG isomeric content” value ([2]; after jet mill micronization, NMR (FIG. 4)) is reported as 1.15 mol %. For the same molecule, the “Long-term chemical stability in the liquid solution phase (acyl migration of the palmitoyl group from 2 to 3 position)” value ([2]; liquid solution phase) was “lacked long-term chemical stability”, the “Isomeric stability in the suspension formulation, duration demonstrated” value ([2]; micronized MCAL-201 in suspension formulation, room temperature) was 6 weeks and the “1,3-EPRG isomeric content” value ([2]; solid micronized suspension stored at room temperature for 6 weeks, NMR (FIG. 5)) was 0.0991 mol %. For the same molecule, the “Isomeric stability in the solid phase compared with solution” value ([2]; solid phase) was “far greater than in solution”, the “Physical stability of the micronized suspension (floating, sinking or aggregation), duration demonstrated” value [3] was over 6 months and the “Ocular or systemic adverse events” value (naïve dogs; any time or concentration evaluated (up to 10 mg/mL OU BID for 48 hours)) was “no ocular or systemic adverse events”. The Tolerability (naïve dogs; topical ocular 35 μL drop, up to 10 mg/mL OU BID for 48 hours) was “well tolerated” and the “Tear film break-up time (TBUT)” value (healthy dogs) was “extended TBUT”.
